Experimental data from ChEMBL document CHEMBL4507268 (2021).

Tests used:
[1] = biological target: Sodium-dependent noradrenaline transporter (Homo sapiens) (UniProt P23975); settings: Compound concentration 10.0 uM
[2] = biological target: cAMP-dependent protein kinase catalytic subunit beta (Homo sapiens) (UniProt P22694); settings: Compound concentration 1.0 uM
[3] = biological target: Tyrosine-protein kinase receptor UFO (Homo sapiens) (UniProt P30530); settings: Compound concentration 1.0 uM
[4] = biological target: Dual specificity protein kinase CLK3 (Homo sapiens) (UniProt P49761); settings: Compound concentration 1.0 uM
[5] = biological target: T1, Inhibitor of nuclear factor kappa-B kinase subunit beta (Homo sapiens) (UniProt O14920); settings: Compound concentration 1.0 uM
T1 sequence (whole entry): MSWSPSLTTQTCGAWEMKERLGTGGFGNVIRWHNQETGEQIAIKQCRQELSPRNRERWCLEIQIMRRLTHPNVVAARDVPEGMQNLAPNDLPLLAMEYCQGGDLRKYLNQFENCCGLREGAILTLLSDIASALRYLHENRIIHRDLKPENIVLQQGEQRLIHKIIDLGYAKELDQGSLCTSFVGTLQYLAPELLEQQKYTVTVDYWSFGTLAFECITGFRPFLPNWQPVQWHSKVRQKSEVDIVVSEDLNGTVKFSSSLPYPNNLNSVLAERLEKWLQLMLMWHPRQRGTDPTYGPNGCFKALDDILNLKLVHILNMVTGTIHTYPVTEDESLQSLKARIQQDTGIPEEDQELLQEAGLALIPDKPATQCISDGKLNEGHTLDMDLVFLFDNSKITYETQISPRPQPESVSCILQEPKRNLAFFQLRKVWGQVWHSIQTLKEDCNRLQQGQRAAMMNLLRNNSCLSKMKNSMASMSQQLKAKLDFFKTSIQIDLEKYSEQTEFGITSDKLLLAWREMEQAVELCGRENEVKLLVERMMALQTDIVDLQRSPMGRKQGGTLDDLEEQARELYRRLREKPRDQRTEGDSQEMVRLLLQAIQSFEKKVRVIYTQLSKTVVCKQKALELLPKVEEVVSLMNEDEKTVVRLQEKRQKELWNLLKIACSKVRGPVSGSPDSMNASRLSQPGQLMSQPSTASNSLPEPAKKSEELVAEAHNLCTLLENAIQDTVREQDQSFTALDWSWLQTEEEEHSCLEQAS

[6] = biological target: Glycogen synthase kinase-3 alpha (Homo sapiens) (UniProt P49840); settings: Compound concentration 1.0 uM
[7] = biological target: Tyrosine-protein kinase Yes (Homo sapiens) (UniProt P07947); settings: Compound concentration 1.0 uM
[8] = biological target: Misshapen-like kinase 1 (Homo sapiens) (UniProt Q8N4C8); settings: Compound concentration 1.0 uM
[9] = biological target: Homeodomain-interacting protein kinase 2 (Homo sapiens) (UniProt Q9H2X6); settings: Compound concentration 1.0 uM
[10] = biological target: Mitogen-activated protein kinase 9 (Homo sapiens) (UniProt P45984); settings: Compound concentration 1.0 uM
[11] = biological target: Protein kinase C delta type (Homo sapiens) (UniProt Q05655); settings: Compound concentration 1.0 uM
[12] = biological target: MAP kinase-activated protein kinase 2 (Homo sapiens) (UniProt P49137); settings: Compound concentration 1.0 uM
[13] = biological target: Testis-specific serine/threonine-protein kinase 2 (Homo sapiens) (UniProt Q96PF2); settings: Compound concentration 1.0 uM
[14] = biological target: eIF-2-alpha kinase GCN2 (Homo sapiens) (UniProt Q9P2K8); settings: Compound concentration 1.0 uM
[15] = biological target: TRAF2 and NCK-interacting protein kinase (Homo sapiens) (UniProt Q9UKE5); settings: Compound concentration 1.0 uM
[16] = biological target: Serine/threonine-protein kinase Nek4 (Homo sapiens) (UniProt P51957); settings: Compound concentration 1.0 uM
[17] = biological target: T2, Tyrosine-protein kinase ZAP-70 (Homo sapiens) (UniProt P43403); settings: Compound concentration 1.0 uM
T2 sequence (whole entry): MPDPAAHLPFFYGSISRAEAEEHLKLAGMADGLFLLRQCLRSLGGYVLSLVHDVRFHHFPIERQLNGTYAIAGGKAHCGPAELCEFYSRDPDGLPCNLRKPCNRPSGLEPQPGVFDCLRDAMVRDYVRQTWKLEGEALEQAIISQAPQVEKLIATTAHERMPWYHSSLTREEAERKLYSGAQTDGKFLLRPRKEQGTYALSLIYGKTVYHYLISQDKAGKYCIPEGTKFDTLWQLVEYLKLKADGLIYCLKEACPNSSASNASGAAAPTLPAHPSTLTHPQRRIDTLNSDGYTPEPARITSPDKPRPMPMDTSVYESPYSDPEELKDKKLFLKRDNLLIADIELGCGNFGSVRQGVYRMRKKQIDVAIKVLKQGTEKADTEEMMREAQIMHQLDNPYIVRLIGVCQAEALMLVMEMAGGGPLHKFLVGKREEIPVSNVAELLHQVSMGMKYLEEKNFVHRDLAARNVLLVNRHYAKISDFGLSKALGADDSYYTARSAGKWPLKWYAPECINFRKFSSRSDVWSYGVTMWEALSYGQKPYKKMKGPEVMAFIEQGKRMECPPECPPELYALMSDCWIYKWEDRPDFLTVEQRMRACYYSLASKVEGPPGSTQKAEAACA

[18] = biological target: Tyrosine-protein kinase Fyn (Homo sapiens) (UniProt P06241); settings: Compound concentration 1.0 uM

Sequence of Glycogen synthase kinase-3 alpha (Homo sapiens) (P49840 2-483 limits assumed): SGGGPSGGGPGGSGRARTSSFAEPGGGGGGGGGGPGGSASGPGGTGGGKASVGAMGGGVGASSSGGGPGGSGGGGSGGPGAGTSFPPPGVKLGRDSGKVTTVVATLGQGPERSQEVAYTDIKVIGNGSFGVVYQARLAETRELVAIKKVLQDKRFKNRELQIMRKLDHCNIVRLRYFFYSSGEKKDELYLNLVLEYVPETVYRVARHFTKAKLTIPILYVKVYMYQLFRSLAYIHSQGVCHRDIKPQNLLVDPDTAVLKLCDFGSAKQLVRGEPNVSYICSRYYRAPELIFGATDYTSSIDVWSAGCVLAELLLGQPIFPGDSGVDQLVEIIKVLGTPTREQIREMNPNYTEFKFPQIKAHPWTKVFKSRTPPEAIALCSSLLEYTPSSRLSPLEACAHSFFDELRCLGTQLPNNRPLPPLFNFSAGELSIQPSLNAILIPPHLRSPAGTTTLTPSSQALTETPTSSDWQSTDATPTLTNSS
Sequence of MAP kinase-activated protein kinase 2 (Homo sapiens) (P49137 whole entry, looked up): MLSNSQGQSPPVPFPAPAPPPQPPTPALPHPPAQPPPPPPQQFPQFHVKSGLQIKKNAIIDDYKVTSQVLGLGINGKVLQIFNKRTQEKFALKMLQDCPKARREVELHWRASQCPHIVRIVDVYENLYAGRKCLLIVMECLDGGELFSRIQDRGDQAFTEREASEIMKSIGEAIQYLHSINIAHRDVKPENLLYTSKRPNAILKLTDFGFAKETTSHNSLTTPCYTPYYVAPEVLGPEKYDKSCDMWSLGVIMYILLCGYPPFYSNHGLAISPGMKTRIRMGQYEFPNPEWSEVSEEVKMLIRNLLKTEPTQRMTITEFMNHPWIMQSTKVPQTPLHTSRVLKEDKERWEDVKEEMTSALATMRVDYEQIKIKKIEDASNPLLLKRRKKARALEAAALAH
Sequence of eIF-2-alpha kinase GCN2 (Homo sapiens) (Q9P2K8 whole entry): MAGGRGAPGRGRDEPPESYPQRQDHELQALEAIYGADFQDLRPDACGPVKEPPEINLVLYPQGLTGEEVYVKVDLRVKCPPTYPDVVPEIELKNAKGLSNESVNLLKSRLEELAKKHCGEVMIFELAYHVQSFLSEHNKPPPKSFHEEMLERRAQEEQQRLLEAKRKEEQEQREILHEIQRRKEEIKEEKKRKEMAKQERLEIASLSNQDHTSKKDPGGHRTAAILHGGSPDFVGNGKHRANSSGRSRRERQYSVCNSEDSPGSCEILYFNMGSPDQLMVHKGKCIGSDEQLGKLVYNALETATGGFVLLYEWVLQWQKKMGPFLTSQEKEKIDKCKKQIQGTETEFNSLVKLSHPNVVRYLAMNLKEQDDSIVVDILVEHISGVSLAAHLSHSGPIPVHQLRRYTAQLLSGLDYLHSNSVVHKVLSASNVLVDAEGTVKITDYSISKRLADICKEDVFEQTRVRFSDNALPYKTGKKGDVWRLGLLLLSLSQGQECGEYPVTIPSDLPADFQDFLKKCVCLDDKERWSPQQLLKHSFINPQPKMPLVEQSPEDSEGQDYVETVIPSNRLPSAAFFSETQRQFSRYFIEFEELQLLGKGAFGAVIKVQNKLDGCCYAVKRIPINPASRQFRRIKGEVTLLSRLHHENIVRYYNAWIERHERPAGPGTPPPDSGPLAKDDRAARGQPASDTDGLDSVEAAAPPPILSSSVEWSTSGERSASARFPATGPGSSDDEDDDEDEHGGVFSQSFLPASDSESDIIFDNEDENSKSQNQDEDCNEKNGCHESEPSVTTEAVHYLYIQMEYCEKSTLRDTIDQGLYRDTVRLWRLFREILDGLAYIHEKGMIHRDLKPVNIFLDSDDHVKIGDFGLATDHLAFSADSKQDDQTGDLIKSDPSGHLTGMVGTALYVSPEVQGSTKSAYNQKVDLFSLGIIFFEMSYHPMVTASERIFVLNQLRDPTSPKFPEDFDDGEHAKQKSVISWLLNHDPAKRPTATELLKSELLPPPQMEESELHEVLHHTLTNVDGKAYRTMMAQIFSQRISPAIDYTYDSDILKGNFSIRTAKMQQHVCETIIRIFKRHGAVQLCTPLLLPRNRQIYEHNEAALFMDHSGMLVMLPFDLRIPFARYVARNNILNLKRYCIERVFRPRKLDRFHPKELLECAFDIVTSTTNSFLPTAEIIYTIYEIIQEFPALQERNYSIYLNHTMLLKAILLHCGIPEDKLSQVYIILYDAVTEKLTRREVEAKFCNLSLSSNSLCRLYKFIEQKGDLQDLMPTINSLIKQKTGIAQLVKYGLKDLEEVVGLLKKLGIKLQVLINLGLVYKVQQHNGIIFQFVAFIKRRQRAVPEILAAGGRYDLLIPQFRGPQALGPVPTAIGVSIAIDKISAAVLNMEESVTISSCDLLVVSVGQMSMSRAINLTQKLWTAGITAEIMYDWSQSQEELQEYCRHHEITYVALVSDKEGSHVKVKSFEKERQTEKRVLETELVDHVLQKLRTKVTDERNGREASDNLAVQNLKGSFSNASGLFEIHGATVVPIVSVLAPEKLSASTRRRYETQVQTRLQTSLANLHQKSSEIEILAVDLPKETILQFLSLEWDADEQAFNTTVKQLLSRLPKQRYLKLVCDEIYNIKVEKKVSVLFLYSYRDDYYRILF
Sequence of Serine/threonine-protein kinase Nek4 (Homo sapiens) (P51957 whole entry, looked up): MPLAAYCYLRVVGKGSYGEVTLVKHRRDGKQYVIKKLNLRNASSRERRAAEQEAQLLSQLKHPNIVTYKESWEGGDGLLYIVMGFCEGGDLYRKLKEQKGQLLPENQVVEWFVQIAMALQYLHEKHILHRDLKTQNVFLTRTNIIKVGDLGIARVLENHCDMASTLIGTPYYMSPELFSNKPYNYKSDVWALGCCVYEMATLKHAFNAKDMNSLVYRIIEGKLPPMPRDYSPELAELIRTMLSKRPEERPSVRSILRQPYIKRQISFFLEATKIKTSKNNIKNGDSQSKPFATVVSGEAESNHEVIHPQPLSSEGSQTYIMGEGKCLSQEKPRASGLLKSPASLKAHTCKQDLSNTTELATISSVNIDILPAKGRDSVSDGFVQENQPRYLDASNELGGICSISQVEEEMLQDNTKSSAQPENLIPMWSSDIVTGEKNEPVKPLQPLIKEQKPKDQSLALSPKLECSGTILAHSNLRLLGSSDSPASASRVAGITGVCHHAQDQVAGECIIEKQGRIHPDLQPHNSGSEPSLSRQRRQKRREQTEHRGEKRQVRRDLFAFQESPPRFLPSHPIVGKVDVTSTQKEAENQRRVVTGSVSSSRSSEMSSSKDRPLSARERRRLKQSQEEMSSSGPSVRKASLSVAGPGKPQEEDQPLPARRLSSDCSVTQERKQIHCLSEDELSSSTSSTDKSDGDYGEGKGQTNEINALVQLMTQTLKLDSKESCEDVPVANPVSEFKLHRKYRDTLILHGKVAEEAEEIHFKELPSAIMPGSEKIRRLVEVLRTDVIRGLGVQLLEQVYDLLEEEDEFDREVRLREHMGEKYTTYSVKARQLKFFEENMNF
Sequence of TRAF2 and NCK-interacting protein kinase (Homo sapiens) (Q9UKE5 whole entry, looked up): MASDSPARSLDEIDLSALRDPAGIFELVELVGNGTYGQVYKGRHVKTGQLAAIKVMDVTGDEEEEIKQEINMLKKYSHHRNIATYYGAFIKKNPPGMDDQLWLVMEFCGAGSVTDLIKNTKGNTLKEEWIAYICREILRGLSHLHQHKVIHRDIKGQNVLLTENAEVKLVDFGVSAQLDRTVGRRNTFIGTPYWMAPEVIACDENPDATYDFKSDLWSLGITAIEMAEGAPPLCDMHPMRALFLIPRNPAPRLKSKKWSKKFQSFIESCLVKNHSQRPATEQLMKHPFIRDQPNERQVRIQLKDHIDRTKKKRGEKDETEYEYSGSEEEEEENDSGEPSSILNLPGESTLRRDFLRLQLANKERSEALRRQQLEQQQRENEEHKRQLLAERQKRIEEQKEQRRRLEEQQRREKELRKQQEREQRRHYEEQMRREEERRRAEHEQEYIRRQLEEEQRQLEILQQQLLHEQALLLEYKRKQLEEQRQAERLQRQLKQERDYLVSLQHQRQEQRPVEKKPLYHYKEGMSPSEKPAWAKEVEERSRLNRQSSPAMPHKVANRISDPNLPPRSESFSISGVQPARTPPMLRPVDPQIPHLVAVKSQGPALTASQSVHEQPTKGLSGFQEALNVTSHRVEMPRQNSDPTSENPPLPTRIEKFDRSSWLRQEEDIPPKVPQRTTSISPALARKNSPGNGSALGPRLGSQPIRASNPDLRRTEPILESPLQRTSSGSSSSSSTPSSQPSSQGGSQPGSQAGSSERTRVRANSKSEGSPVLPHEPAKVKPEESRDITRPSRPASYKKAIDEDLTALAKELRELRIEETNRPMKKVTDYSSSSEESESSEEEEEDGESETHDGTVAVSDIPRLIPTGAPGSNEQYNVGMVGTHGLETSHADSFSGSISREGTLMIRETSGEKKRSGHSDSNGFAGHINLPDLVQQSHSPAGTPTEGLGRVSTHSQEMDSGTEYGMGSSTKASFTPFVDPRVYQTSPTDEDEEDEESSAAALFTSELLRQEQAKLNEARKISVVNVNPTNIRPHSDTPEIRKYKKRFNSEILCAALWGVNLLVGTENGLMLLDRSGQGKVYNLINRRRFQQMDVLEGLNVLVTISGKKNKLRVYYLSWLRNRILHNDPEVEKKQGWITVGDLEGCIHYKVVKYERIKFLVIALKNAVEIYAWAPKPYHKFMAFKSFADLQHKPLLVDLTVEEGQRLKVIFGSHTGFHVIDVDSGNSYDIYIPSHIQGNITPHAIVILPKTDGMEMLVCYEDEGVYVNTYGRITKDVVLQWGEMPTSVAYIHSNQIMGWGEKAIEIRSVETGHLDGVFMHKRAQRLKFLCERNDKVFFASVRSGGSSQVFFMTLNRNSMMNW
Sequence of Testis-specific serine/threonine-protein kinase 2 (Homo sapiens) (Q96PF2 whole entry): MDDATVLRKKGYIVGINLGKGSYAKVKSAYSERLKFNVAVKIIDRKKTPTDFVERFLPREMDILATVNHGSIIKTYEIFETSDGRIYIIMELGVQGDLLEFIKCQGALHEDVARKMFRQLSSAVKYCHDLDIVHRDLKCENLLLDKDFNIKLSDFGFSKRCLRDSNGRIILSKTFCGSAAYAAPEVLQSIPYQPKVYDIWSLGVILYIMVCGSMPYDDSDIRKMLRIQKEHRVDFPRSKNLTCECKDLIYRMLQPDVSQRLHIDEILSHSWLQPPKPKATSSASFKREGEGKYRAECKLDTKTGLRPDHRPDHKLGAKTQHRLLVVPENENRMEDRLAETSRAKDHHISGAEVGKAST

Cc1nc(C2CCN(C(=O)c3ccc(OC(F)(F)F)cc3N)CC2)c2ncc(N3CCN(C)CC3)cc2n1 [BAY-693]
inactive: inhibition [1] 24.6%

CN1CCN(c2cnc3c(C4CCN(C(=O)c5ccc(OC(F)(F)F)cc5N)CC4)ncnc3c2)CC1 [BAY-885]
inactive: % residual kinase activity [2] 89% | % residual kinase activity [3] 91% | % residual kinase activity [4] 111% | % residual kinase activity [5] 106% | % residual kinase activity [6] 112% | % residual kinase activity [7] 99% | % residual kinase activity [8] 98% | % residual kinase activity [9] 107% | % residual kinase activity [10] 104% | % residual kinase activity [11] 115% | % residual kinase activity [12] 81% | % residual kinase activity [13] 113% | % residual kinase activity [14] 98% | % residual kinase activity [15] 89% | % residual kinase activity [16] 114% | % residual kinase activity [17] 108% | % residual kinase activity [18] 129%
